Source: patent publication US9346809B2 (LEO PHARMA A/S, priority 2009, dated 2016)
Read-outs that look alike come from different tables or passages of the source.

Tests used:
Type in all cases: biochemical
[1] = biological target: T1, JAK1 (aa 850-1154, catalytic domain, GST-tag) (Homo sapiens, UniProt P23458); test: JAK kinase assay (HTRF, phosphorylation of TK substrate-biotin), JAK1; details: ATP at Km (7 μM)
T1 construct: JAK1 (aa 850-1154) and TYK2 (aa 871-1187) are expressed with an N-terminally fused GST-tag; GST (N); purchased Carna Biosciences, Inc; host or cells: baculovirus expression system
T1 sequence (P23458 850-1154): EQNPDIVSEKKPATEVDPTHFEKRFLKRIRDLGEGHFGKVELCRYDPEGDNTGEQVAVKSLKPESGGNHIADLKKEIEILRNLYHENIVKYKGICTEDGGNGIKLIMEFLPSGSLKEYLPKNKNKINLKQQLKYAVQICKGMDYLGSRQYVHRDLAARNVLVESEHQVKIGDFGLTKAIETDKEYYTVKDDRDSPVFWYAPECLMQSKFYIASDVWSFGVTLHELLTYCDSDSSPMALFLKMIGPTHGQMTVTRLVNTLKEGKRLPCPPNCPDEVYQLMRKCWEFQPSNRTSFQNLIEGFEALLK
Summary of the method: (§1)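 EC50 values come from HTRF detection of phospho-biotin-TK peptide (1 μM) after 20-30 min RT reactions in Hepes pH 7.0 buffer with 0.75% DMSO. ATP was at Km for each enzyme: 7 μM JAK1, 4 μM JAK2, 2 μM JAK3, 13 μM TYK2. SEB (50 nM) was added for JAK1 and TYK2 only.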

[2] = biological target: T2, JAK2 (catalytic domain, His-tag) (Homo sapiens, UniProt O60674); test: JAK kinase assay (HTRF, phosphorylation of TK substrate-biotin), JAK2; details: ATP at Km (4 μM)
T2 construct: All four purified enzymes contain only the catalytic domain; His (N); purchased Carna Biosciences, Inc; host or cells: baculovirus expression system
T2 sequence (O60674 849-1124 limits assumed): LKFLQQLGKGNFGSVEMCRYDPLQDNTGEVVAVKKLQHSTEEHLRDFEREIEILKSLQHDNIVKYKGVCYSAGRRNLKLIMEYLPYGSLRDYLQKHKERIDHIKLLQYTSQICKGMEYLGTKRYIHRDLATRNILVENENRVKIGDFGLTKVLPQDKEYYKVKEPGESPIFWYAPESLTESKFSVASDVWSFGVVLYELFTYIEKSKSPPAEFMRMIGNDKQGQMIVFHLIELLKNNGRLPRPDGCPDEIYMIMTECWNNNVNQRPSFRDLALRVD
Summary of the method: as §1

[3] = biological target: T3, JAK3 (catalytic domain, His-tag) (Homo sapiens, UniProt P52333); test: JAK kinase assay (HTRF, phosphorylation of TK substrate-biotin), JAK3; details: ATP at Km (2 μM)
T3 construct: All four purified enzymes contain only the catalytic domain; His (N); purchased Carna Biosciences, Inc; host or cells: baculovirus expression system
T3 sequence (P52333 822-1111 limits assumed): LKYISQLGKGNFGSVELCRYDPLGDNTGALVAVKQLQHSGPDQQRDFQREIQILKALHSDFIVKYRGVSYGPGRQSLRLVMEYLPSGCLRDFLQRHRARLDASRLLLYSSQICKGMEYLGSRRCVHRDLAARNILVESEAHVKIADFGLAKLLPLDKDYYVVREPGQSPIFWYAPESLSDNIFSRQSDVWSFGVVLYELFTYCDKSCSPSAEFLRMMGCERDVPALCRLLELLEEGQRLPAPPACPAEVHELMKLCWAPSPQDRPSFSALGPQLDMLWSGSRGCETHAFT
Summary of the method: as §1

[4] = biological target: T4, TYK2 (aa 871-1187, catalytic domain, GST-tag) (Homo sapiens, UniProt P29597); test: JAK kinase assay (HTRF, phosphorylation of TK substrate-biotin), TYK2; details: ATP at Km (13 μM)
T4 construct: JAK1 (aa 850-1154) and TYK2 (aa 871-1187) are expressed with an N-terminally fused GST-tag; GST (N); purchased Carna Biosciences, Inc; host or cells: baculovirus expression system
T4 sequence (P29597 871-1187): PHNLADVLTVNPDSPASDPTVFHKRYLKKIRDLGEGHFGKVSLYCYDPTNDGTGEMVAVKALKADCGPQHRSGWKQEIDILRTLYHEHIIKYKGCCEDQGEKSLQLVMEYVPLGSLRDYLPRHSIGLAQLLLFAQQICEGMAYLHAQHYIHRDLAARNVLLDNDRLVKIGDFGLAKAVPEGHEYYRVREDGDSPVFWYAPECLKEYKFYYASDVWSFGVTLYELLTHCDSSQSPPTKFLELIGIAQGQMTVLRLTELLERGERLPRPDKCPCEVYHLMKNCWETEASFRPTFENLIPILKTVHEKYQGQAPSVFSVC
Summary of the method: as §1

[5] = HTRF assay, read-out: JAK1 kinase inhibitory activity (EC50 indicator)
[6] = HTRF assay, read-out: JAK2 kinase inhibitory activity (EC50 indicator)
[7] = HTRF assay, read-out: JAK3 kinase inhibitory activity (EC50 indicator)
[8] = HTRF assay, read-out: TYK2 kinase inhibitory activity (EC50 indicator)
[9] = read-out: JAK1 kinase inhibitory activity (EC50 indicator)
[10] = read-out: JAK2 kinase inhibitory activity (EC50 indicator)
[11] = read-out: JAK3 kinase inhibitory activity (EC50 indicator)
[12] = read-out: TYK2 kinase inhibitory activity (EC50 indicator)

Row | SMILES | EC50 [1, 5] | EC50 [2, 6] | EC50 [3, 7] | EC50 [4, 8] | EC50 [1, 9] | EC50 [2, 10] | EC50 [3, 11] | EC50 [4, 12] | further results
1 | NS(=O)(=O)c1ccc(CCC(=O)N2CCN(c3ncnc4[nH]ccc34)CC23CC3)cc1 [Example 383, 4-{3-Oxo-3-[7-(7H-pyrrolo[2,3-d]pyrimidin-4-yl)-4,7-diaza-spiro[2.5]oct-4-yl]-propyl}-benzenesulfonamide] | < 100 nM | < 100 nM | < 100 nM | < 100 nM | – | – | – | – | –
2 | N#Cc1cc(CC(=O)N2CCN(c3ncnc4[nH]ccc34)CC23CC3)ccc1F [Example 66, 2-Fluoro-5-{2-oxo-2-[7-(7H-pyrrolo[2,3-d]pyrimidin-4-yl)-4,7-diaza-spiro[2.5]oct-4-yl]-ethyl}-benzonitrile] | – | – | – | – | < 100 nM | < 100 nM | 100 to 500 nM | > 500 nM | –
3 | O=C1CCC(C(=O)N2CCN(c3ncnc4[nH]ccc34)CC23CC3)CC1 [Example 23, 4-[7-(7H-Pyrrolo[2,3-d]pyrimidin-4-yl)-4,7-diazaspiro[2.5]octane-4-carbonyl]cyclohexanone] | – | – | – | – | < 100 nM | < 100 nM | < 100 nM | 100 to 500 nM | –
4 | COCCS(=O)(=O)c1ccc(C(=O)N2CCN(c3ncnc4[nH]ccc34)CC23CC3)cc1 [Example 433, [4-(2-Methoxy-ethanesulfonyl)-phenyl]-[7-(7H-pyrrolo[2,3-d]pyrimidin-4-yl)-4,7-diaza-spiro[2.5]oct-4-yl]-methanone] | < 100 nM | < 100 nM | 100 to 500 nM | 100 to 500 nM | – | – | – | – | –
5 | CNS(=O)(=O)c1ccc(C(=O)N2CCN(c3ncnc4[nH]ccc34)CC23CC3)cc1 [Example 104, N-Methyl-4-[7-(7H-pyrrolo[2,3-d]pyrimidin-4-yl)-4,7-diaza-spiro[2.5]octane-4-carbonyl]-benzenesulfonamide] | – | – | – | – | < 100 nM | < 100 nM | < 100 nM | < 100 nM | –
6 | O=C(Cc1cccnc1)N1[C@@H]2CC[C@@H]1CN(c1ncnc3[nH]ccc13)C2 [Example 172, 2-Pyridin-3-yl-1-[3-(7H-pyrrolo[2,3-d]pyrimidin-4-yl)-3,8-diaza-bicyclo[3.2.1]oct-8-yl]-ethanone] | – | – | – | – | > 500 nM | 100 to 500 nM | > 500 nM | > 500 nM | –
7 | N#Cc1ccc2c(C(=O)N3CCN(c4ncnc5[nH]ccc45)CC34CC4)n[nH]c2c1 [Example 301, 3-[7-(7H-Pyrrolo[2,3-d]pyrimidin-4-yl)-4,7-diaza-spiro[2.5]octane-4-carbonyl]-1H-indazole-6-carbonitrile] | < 100 nM | < 100 nM | < 100 nM | 100 to 500 nM | – | – | – | – | –
8 | O=C(C1CCc2ccccc21)N1CCN(c2ncnc3[nH]ccc23)CC12CC2 (stereo not shown) [Example 105, Indan-1-yl-[7-(7H-pyrrolo[2,3-d]pyrimidin-4-yl)-4,7-diaza-spiro[2.5]oct-4-yl]-methanone] | – | – | – | – | 100 to 500 nM | < 100 nM | 100 to 500 nM | > 500 nM | –
9 | N#CCc1ccc(CC(=O)N2CCN(c3ncnc4[nH]cc(Cl)c34)CC23CC3)cc1 [Example 319, (4-{2-[7-(5-Chloro-7H-pyrrolo[2,3-d]pyrimidin-4-yl)-4,7-diaza-spiro[2.5]oct-4-yl]-2-oxo-ethyl}-phenyl)-acetonitrile] | > 500 nM | 100 to 500 nM | 100 to 500 nM | > 500 nM | – | – | – | – | –
10 | N#Cc1ccc(CC(=O)N2CCN(c3ccnc4[nH]ccc34)CC23CC3)cc1 [Example 115, 4-{2-Oxo-2-[7-(1H-pyrrolo[2,3-b]pyridin-4-yl)-4,7-diaza-spiro[2.5]oct-4-yl]-ethyl}-benzonitrile] | – | – | – | – | < 100 nM | < 100 nM | < 100 nM | > 500 nM | –
11 | O=C1c2ccccc2CC1C(=O)N1C2CCC1CN(c1ncnc3[nH]ccc13)C2 (stereo not shown) [Example 133, 2-[3-(7H-Pyrrolo[2,3-d]pyrimidin-4-yl)-3,8-diaza-bicyclo[3.2.1]octane-8-carbonyl]-indan-1-one] | – | – | – | – | > 500 nM | 100 to 500 nM | > 500 nM | > 500 nM | –
12 | CC(C)(C)[S+]([O-])N1CCN(c2ncnc3[nH]ccc23)CC12CC2 (stereo not shown) [Example 449, 4-[4-(2-Methyl-propane-2-sulfinyl)-4,7-diaza-spiro[2.5]oct-7-yl]-7H-pyrrolo[2,3-d]pyrimidine] | – | – | – | – | – | – | – | – | EC50 ([1]; HTRF assay, read-out: JAK1 kinase inhibitory activity (EC50)): > 500 nM; EC50 ([2]; HTRF assay, read-out: JAK2 kinase inhibitory activity (EC50)): 100 to 500 nM; EC50 ([3]; HTRF assay, read-out: JAK3 kinase inhibitory activity (EC50)): > 500 nM; EC50 ([4]; HTRF assay, read-out: TYK2 kinase inhibitory activity (EC50)): > 500 nM
13 | N#Cc1csc(C(=O)N2CCN(c3ncnc4[nH]ccc34)CC23CC3)c1 [Example 60, 5-[7-(7H-Pyrrolo[2,3-d]pyrimidin-4-yl)-4,7-diaza-spiro[2.5]octane-4-carbonyl]-thiophene-3-carbonitrile] | – | – | – | – | < 100 nM | < 100 nM | < 100 nM | < 100 nM | –
14 | NS(=O)(=O)c1c[nH]c(C(=O)N2CCN(c3ncnc4[nH]ccc34)CC23CC3)c1 [Example 402, 5-[7-(7H-Pyrrolo[2,3-d]pyrimidin-4-yl)-4,7-diaza-spiro[2.5]octane-4-carbonyl]-1H-pyrrole-3-sulfonic acid amide] | < 100 nM | < 100 nM | < 100 nM | < 100 nM | – | – | – | – | –
15 | CC(C)(C)OC(=O)N1CCN(c2ncnc3[nH]ccc23)CC12CC2 [Example 45, 7-(7H-pyrrolo[2,3-d]pyrimidin-4-yl)-4,7-diazaspiro[2.5]octane-4-carboxylic acid tert-butyl ester] | – | – | – | – | < 100 nM | < 100 nM | < 100 nM | > 500 nM | –
16 | Cc1c[nH]c2ncnc(N3CCN(C(=O)c4cccc(C#N)c4)C4(CC4)C3)c12 [Example 119, 3-[7-(5-Methyl-7H-pyrrolo[2,3-d]pyrimidin-4-yl)-4,7-diaza-spiro[2.5]octane-4-carbonyl]-benzonitrile] | – | – | – | – | > 500 nM | > 500 nM | > 500 nM | > 500 nM | –
17 | Cc1c(C(=O)N2CCN(c3ccnc4[nH]ccc34)CC23CC3)sc2ccccc12 [Example 232, (3-Methyl-benzo[b]thiophen-2-yl)-[7-(1H-pyrrolo[2,3-b]pyridin-4-yl)-4,7-diaza-spiro[2.5]oct-4-yl]-methanone] | < 100 nM | < 100 nM | > 500 nM | 100 to 500 nM | – | – | – | – | –
18 | O=C(c1cccc2cccnc12)N1CCN(c2ncnc3[nH]ccc23)CC12CC2 [Example 164, [7-(7H-Pyrrolo[2,3-d]pyrimidin-4-yl)-4,7-diaza-spiro[2.5]oct-4-yl]-quinolin-8-yl-methanone] | – | – | – | – | 100 to 500 nM | < 100 nM | 100 to 500 nM | > 500 nM | –
19 | NS(=O)(=O)c1ccc(C(=O)NCC(=O)N2CCN(c3ncnc4[nH]ccc34)CC23CC3)cc1 [Example 410, N-{2-Oxo-2-[7-(7H-pyrrolo[2,3-d]pyrimidin-4-yl)-4,7-diaza-spiro[2.5]oct-4-yl]-ethyl}-4-sulfamoyl-benzamide] | < 100 nM | < 100 nM | < 100 nM | < 100 nM | – | – | – | – | –
20 | N#Cc1ccc(C2(C(=O)N3CCN(c4ncnc5[nH]ccc45)CC34CC4)CC2)cc1 [Example 429, 4-{1-[7-(7H-Pyrrolo[2,3-d]pyrimidin-4-yl)-4,7-diaza-spiro[2.5]octane-4-carbonyl]-cyclopropyl}-benzonitrile] | < 100 nM | < 100 nM | < 100 nM | 100 to 500 nM | – | – | – | – | –
21 | N#CCOc1cccc(C(=O)N2CCN(c3ncnc4[nH]ccc34)CC23CC3)c1 [Example 67, {3-[7-(7H-Pyrrolo[2,3-d]pyrimidin-4-yl)-4,7-diaza-spiro[2.5]octane-4-carbonyl]-phenoxy}-acetonitrile] | – | – | – | – | < 100 nM | < 100 nM | 100 to 500 nM | 100 to 500 nM | –
22 | CC(C)S(=O)(=O)Nc1ccc(C(=O)N2CCN(c3ncnc4[nH]ccc34)CC23CC3)cc1 [Example 432, Propane-2-sulfonic acid {4-[7-(7H-pyrrolo[2,3-d]pyrimidin-4-yl)-4,7-diaza-spiro[2.5]octane-4-carbonyl]-phenyl}-amide] | < 100 nM | < 100 nM | < 100 nM | 100 to 500 nM | – | – | – | – | –
